Reference: US12366579B2, “Sulfur-heterocycle exchange chemistry and uses thereof” (University of Virginia Patent Foundation, priority 2019, dated 2025)

What was measured:
[1] = tested on: HEK293T soluble proteomes; assay: LC-MS chemical proteomics of probe-modified sites in cell proteomes; assay type: binding, human; settings: for unique-modified tyrosine sites among 1,2,4-SuTEx probes: FIG. 4D; for tyrosine specificity, Y/K ratio of modified sites: LC-MS chemical proteomics
Procedure: Proteomes were diluted to 2.3 mg/mL in PBS and sample aliquots (432 μL) were treated with sulfonyl-triazole or -fluoride probes at the indicated concentrations (5 μL, 100× stock in DMSO), mixed gently and incubated for 1 h at room temperature. Probe-modified proteomes were subjected to CuAAC conjugation to desthiobiotin-PEG3-azide (10 μL of 10 mM stock in DMSO; final concentration of 200 μM) using TCEP (10 μL of fresh 50 mM stock in water; 1 mM final concentration), TBTA ligand (33 μL of a 1.7 mM 4:1 t-butanol/DMSO stock, 100 μM final concentration), and CuSO4 (10 μL of 50 mM stock, 1 mM final concentration). Samples were mixed by vortexing and then incubated for 1 h at room temperature. Excess reagents were removed by chloroform-methanol extraction as previously described^51. Protein pellets were re-suspended in 500 μL of 6M urea/25 mM ammonium bicarbonate followed by DTT reduction and IAA alkylation as previously described^5. Excess reagents were removed by chloroform/methanol extraction as described above, and the protein pellet was re-suspended in 500 μL of 25 mM ammonium bicarbonate and then digested to peptides using trypsin/Lys-C (7.5 μg in 15 μL of ammonium bicarbonate, sequencing grade from Promega, Madison, Wisconsin, United States of America) was added to the mixture and incubated for 3 hrs at 37° C. Probe-modified peptides were enriched by avidin affinity chromatography, eluted, and prepared for LC-MS analysis as previously described^51.
A top 10 data-dependent acquisition MS method was used.
Sulfonyl-probe modifications of tyrosine, lysine, and other amino acids were included as a variable (common) modification of +635.27374 Da. […] A Byonic score of 300 was applied for a more inclusive initial evaluation of the search results and thereby consider more possible probe-modified sites. MS1 and MS2 spectra corresponding to the highest-scoring tyrosine- and lysine (internal or non-C terminal)-modified sequences (˜50-100 peptides) were manually verified. […] Distinct peptides containing probe-modified amino acid residues (termed sites) were determined by identifying all unique razor protein and site combinations across all of the proteomes tested.
To compare amino acid residues modified by sulfonyl probes, protein and peptide identifications were accomplished as described above with variable (common) modification of +635.27374 Da on the following amino acid residues: cysteine, aspartic acid, glutamic acid, histidine, lysine, methionine, asparagine, glutamine, arginine, serine, threonine, tryptophan, and tyrosine. For these amino acid comparisons, carbamidomethylation (+57.021464 Da) of cysteines was searched as a variable/common modification to allow for the potential of probe modification on cysteines. Comparisons of probe-modified sites across all probes and cell lines tested were performed using the R package ggplot2 (online at tidyverse.org). Venn diagrams for comparisons were generated using the VennDiagram R package^52.
Proteomes were digested with trypsin protease and desthiobiotin-modified peptides enriched by avidin affinity chromatography, released, and analyzed by high-resolution liquid chromatography-mass spectrometry (LC-MS). Probe-modified peptide-spectrum matches (PSMs) that met a quality control confidence criteria of ≥300 Byonic score^31 and ≤5 ppm mass accuracy were selected for further manual evaluation.

[2] = HPLC assay for solution reactivity of sulfonyl triazole fragments with p-cresol; assay type: physicochemical; settings: for solution reactivity with p-cresol: HPLC assay, TMG base; for time to completion of reaction with p-cresol: TMG 1.1 equivalents, on ice
Procedure: HPLC Assay for Profiling Solution Reactivity and Stability of Sulfonyl Triazole Fragments
The following reagents were prepared and stored on ice prior to use. 0.1 M solution of caffeine in acetonitrile, 1.0 M solution of n-butylamine, p-cresol, tetramethylguanidine […], 1 M HOAc in ACN and 10 mM solution of SuTEx fragment in DMF-ACN mixture (10:90, v/v). 500 μL of fragment solution was transferred to a dram vial on ice. To the mixture, 5.5 μL of TMG and 5.5 μL of p-cresol or n-butylamine was added and solutions were stirred on ice for 6 h. To monitor reactivity, 50 μL aliquots were removed at indicated time points and quenched with 10 μL of a 1:1 mixture of caffeine and HOAc. Samples were injected (1 μL) and analyzed by reverse-phase HPLC on a Shimadzu 1100 Series spectrometer (Shimadzu, Kyoto, Japan) with UV detection at 254 nm. Reaction progress was evaluated by monitoring consumption of starting material (SuTEx fragment) normalized to caffeine standard. Chromatographic separation was performed using a Phenomenex Kinetex C18 column (2.6 μm, 50×4.6 mm) (Phenomenex, Torrance, California, United States of America). Mobile phases A and B were composed of H2O+0.1% HOAc and ACN+0.1% HOAc, respectively. Samples were analyzed using the following analytical conditions: using a flow rate of 0.8 ml min^−1, the gradient was as follows: 0-0.5 min, 15% B; 0.5-6.5 min 85% B; 6.5-7 min 100% B: 7-8.5 min 100% B; 8.5-9 min 15% B; 9-9.8 min 15% B.

DM93 soluble proteomes = assay: Proteome-wide competitive chemical proteomics of SuTEx fragments vs HHS-482; assay type: binding, human; settings: fragment 50 μM, 30 min, 37° C.
Procedure: Heavy and light proteomes (432 μl of each) were diluted to 2.3 mg ml^−1 in PBS and sample aliquots (432 μl) were treated with SuTEx fragment at the indicated concentrations (5 μl, 100× stock in DMSO), mixed gently and incubated for 30 min at 37° C. Samples were then treated with HHS-482 (5 μL, 5 mM stock in DMSO) for 30 min at 37° C. Probe-modified proteomes were conjugated to desthiobiotin-PEG3-azide followed by enrichment of probe-modified peptides for nano-electrospray ionization-LC-MS/MS analyses as previously described^57.
The chemical proteomic method for functional tyrosine profiling^72 was tailored to investigate AG/LG effects on SuTEx fragment reactivity in complex proteomes. In brief, isotopically light and heavy soluble proteomes from DM93 melanoma cells cultured by stable isotopic labeling by amino acids in cell culture (SILAC^80) media were used for quantitative liquid chromatography-mass spectrometry (LC-MS) studies. Light and heavy DM93 proteomes were treated with dimethyl sulfoxide (DMSO) vehicle or SuTEx fragment (50 μM, 30 min, 37° C.), respectively, followed by labeling with the tyrosine-reactive probe HHS-482 described hereinabove (50 μM, 30 min, 37° C.) and copper-catalyzed azide-alkyne cycloaddition (CuAAC) conjugation of a desthiobiotin-azide enrichment tag. Proteomes were digested with trypsin protease, HHS-482-modified peptides enriched by avidin chromatography and analyzed by high-resolution LC-MS/MS and bioinformatics as described hereinabove.
To evaluate substituent effects on proteome activity, reactivity profiles of each respective SuTEx fragment were compared across >1500 total distinct HHS-482-modified tyrosine sites from >650 detected proteins. Fragments were screened across independent biological replicates (n=2-3) and high-quality tyrosine site annotations were identified by detection in at least a single biological replicate from each fragment dataset, probe-specific enrichment (HHS-482 probe/DMSO SILAC ratio (SR)>5), and quality control confidence criteria of ≥300 Byonic score^31, […] protein false discovery rate (FDR), and ≤5 ppm mass accuracy in order to minimize the potential for false positives^72. SILAC ratios (SR) from competitive studies (Light-DMSO/Heavy-fragment) were used to identify fragment-competed tyrosine residues as sites showing >75% reduction in enrichment by HHS-482 compared with DMSO vehicle control (i.e. liganded tyrosines, SR>4). In total, 305 liganded tyrosines on 213 distinct proteins were identified, corresponding to ˜30% and ˜44% of total quantified tyrosines and proteins, respectively. […]

human DPP3 (hDPP3) = target: T1, human DPP3 (hDPP3) (Homo sapiens, UniProt Q9NY33); assay: Gel-based competitive chemical proteomic screen with HHS-482, recombinant hDPP3-HEK293T soluble proteomes; assay type: binding; settings: 50 μM fragment, 37° C., 30 min
T1 construct: FLAG (C); host or cells: HEK293T, transient transfection; soluble proteome used unpurified
T1 sequence (Q9NY33 1-737): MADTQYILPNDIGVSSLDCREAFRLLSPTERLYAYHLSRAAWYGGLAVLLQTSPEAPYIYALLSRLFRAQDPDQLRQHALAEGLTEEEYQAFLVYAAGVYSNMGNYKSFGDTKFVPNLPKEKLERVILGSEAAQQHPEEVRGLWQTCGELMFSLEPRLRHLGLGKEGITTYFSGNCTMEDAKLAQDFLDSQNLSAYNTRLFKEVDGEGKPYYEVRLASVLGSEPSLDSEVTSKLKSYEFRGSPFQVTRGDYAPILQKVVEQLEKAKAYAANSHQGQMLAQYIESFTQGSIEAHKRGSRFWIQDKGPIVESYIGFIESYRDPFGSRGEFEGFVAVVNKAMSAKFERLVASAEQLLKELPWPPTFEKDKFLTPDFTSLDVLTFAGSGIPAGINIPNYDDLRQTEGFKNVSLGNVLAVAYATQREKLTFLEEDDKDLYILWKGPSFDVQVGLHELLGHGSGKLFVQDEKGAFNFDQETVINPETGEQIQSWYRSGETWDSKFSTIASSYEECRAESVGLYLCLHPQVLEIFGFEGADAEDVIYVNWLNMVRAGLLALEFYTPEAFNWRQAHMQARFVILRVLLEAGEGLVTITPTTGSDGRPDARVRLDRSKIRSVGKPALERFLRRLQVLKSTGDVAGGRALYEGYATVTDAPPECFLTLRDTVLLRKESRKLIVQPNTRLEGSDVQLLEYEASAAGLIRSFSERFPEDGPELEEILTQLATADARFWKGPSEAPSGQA
Procedure: Gel-Based Chemical Proteomic Assay
Cell pellets were lysed in PBS and fractionated (100,000×g, 45 min, 4° C.) to generate soluble and membrane fractions. Protein concentrations were determined using Bio-Rad DC protein assay (Bio-Rad Laboratories, Inc., Hercules, California, United States of America), and adjusted to 1 mgml^−1 in PBS. Proteome samples (49 μl aliquots) were treated with DMSO vehicle or indicated concentration of SuTEx fragment (1 μL, 50× stock in DMSO) for 30 min at 37° C. Samples were then treated with HHS-482 probe (1 μL, 2.5 mM stock in DMSO) for 30 min at 37° C. Probe labeled samples were conjugated to rhodamine-azide (1 μL, 1.25 mM stock; final concentration of 25 μM) by copper-catalyzed azide-alkyne cycloadditions (CuAAC) for 1 h at room temperature followed by SDS-PAGE and in-gel fluorescence scanning as previously described^57.

C#CCNC(=O)c1ccc(S(=O)(=O)n2cnc(-c3ccccc3)n2)cc1 [HHS-481, 4-((3-Phenyl-1H-1,2,4-triazol-1-yl)sulfonyl)-N-(prop-2-yn-1-yl)benzamide]
total number of probe-modified sites (Y and K combined) ([1]; FIG. 4A): ~4,000 sites | unique-modified tyrosine sites among 1,2,4-SuTEx probes [1]: 445 sites | tyrosine specificity, Y/K ratio of modified sites ([1]; FIG. 4A): 3.5

C#CCNC(=O)c1ccc(S(=O)(=O)n2cnc(-c3ccc(OC)cc3)n2)cc1 [HHS-482, 4-((3-(4-Methoxyphenyl)-1H-1,2,4-triazol-1-yl)sulfonyl)-N-(prop-2-yn-1-yl)benzamide]
total number of probe-modified sites (Y and K combined) ([1]; FIG. 4A): ~3,000 sites | unique-modified tyrosine sites among 1,2,4-SuTEx probes [1]: 112 sites | tyrosine specificity, Y/K ratio of modified sites ([1]; FIG. 4A): ~5 | fraction of probe-modified residues/peptides assigned to tyrosines ([1]; high confidence sites): ~75%

C#CCNC(=O)c1ccc(S(=O)(=O)n2cnc(-c3ccc(F)cc3)n2)cc1 [HHS-483, 4-((3-(4-Fluorophenyl)-1H-1,2,4-triazol-1-yl)sulfonyl)-N-(prop-2-yn-1-yl)benzamide]
proteome reactivity and tyrosine specificity compared with HHS-481 ([1]; FIG. 4A): comparable reactivity and slightly lowered tyrosine specificity | unique-modified tyrosine sites among 1,2,4-SuTEx probes [1]: 433 sites

COc1ccc(-c2ncn(S(=O)(=O)c3ccc(F)cc3)n2)cc1 [JWB135, 1-((4-Fluorophenyl)sulfonyl)-3-(4-methoxyphenyl)-1H-1,2,4-triazole]
solution reactivity with p-cresol [2]: attenuated reactivity

COc1ccc(-c2ncn(S(=O)(=O)c3ccc(OC)cc3)n2)cc1 [JWB136, 3-(4-Methoxyphenyl)-1-((4-methoxyphenyl)sulfonyl)-1H-1,2,4-triazole]
solution reactivity with p-cresol [2]: incomplete reaction

COc1ccc(-c2ncn(S(=O)(=O)c3ccc(C#N)cc3)n2)cc1 [JWB137, 4-((3-(4-Methoxyphenyl)-1H-1,2,4-triazol-1-yl)sulfonyl)benzonitrile]
time to completion of reaction with p-cresol [2]: ~5 min

COc1ccc(-c2ncn(S(=O)(=O)c3cccnc3)n2)cc1 [JWB141, 3-((3-(4-Methoxyphenyl)-1H-1,2,4-triazol-1-yl)sulfonyl)pyridine]
time to completion of reaction with p-cresol [2]: ~30 min

O=S(=O)(c1ccc(F)cc1)n1cnc(-c2ccc(C(F)(F)F)cc2)n1 [JWB150, 1-((4-Fluorophenyl)sulfonyl)-3-(4-(trifluoromethyl)phenyl)-1H-1,2,4-triazole]
solution reactivity with p-cresol [2]: comparable reaction | liganded tyrosine frequency (SR>4) (DM93 soluble proteomes): > 25% | competition against recombinant DPP3 (human DPP3 (hDPP3); also substantial proteome cross-reactivity): potent competition

O=S(=O)(c1ccc(-c2ccccc2)cc1)n1cnc(-c2ccncc2)n1 [JWB202, 4-(1-([1,1′-Biphenyl]-4-ylsulfonyl)-1H-1,2,4-triazol-3-yl)pyridine]
blockade of DPP3 probe (HHS-482) labeling (human DPP3 (hDPP3)): ~50%
